{"source": "patent US8609668B2", "about": "“Substituted triazolo[1,5-A]pyrimidines as antiviral agents” (Philadelphia Health & Education Corporation, priority 2006, dated 2013)", "origin": "cited, not measured here", "system": "HBeAg secretion", "details": "in vivo and in vitro"}
{"smiles": "O=c1oc2c(O)c(O)cc3c(=O)oc4c(O)c(O)cc1c4c23", "note": "[Ellagic acid]", "values": [{"measurement": "secretion of HBeAg", "value": "specifically inhibit secretion of HBeAg"}]}
